Earlier results in article PMC7247160, “Inhibitors of DNA Glycosylases as Prospective Drugs” (International Journal of Molecular Sciences, 2020).
Like-named read-outs stand apart in the source and are kept apart here.

Experiments:
UNG [1] = conditions: for IC50: UNG, human, read-out: I50
NEIL1 = conditions: NEIL1, human; read-out: I50
UNG [2] = tested on: UNG; parameters: method as in PMID 23400284; conditions: species not specified, read-out: I50
UNG [3] = tested on: UNG
Nei2 = tested on: Nei2; parameters: method as in PMID 28955788; conditions: Nei2, Mycobacterium tuberculosis
Fpg [4] = conditions: for Fpg inhibition (in words): free damaged base analogs
MPG = tested on: MPG; parameters: method as in PMID 25650313; conditions: human, read-out: I50
Fpg [5] = conditions: E. coli
Fpg [6] = tested on: Fpg; parameters: method as in PMID 25143530; conditions: Lactococcus lactis, read-out: I50
OGG1 [7] = conditions: OGG1, human; read-out: I50
NEIL2 = tested on: NEIL2; parameters: method as in PMID 23138988; conditions: NEIL2, human; read-out: I50
NTHL1 = tested on: NTHL1; parameters: method as in PMID 23138988; conditions: NTHL1, human; read-out: I50
UNG [8] = tested on: UNG; remark: listed apart in the source
MTH1 = conditions: MTH1, human; read-out: I50
MutY = conditions: read-out: Kd or Ki directly measured
OGG1 [9] = tested on: OGG1; parameters: method as in PMID 30442810; conditions: OGG1, mouse; read-out: I50
OGG1 [10] = tested on: OGG1; parameters: method as in PMID 30442810; conditions: mouse model
D4/A20 complex = conditions: UNG (D4), vaccinia virus; read-out: IC50 for DNA polymerase activity in the presence of the D4/A20 complex
[11] = read-out: Kd or Ki directly measured

## O=C(O)c1cccc(C=NOCCCNCc2cc(=O)[nH]c(=O)[nH]2)c1 [C00003 R1 = C00005 R2 = COOH, R3 = H]
UNG [1]; bipartite inhibitors
  IC50: 1.6 µM

## CCn1cnc2c(Nc3cccc(C)c3)nc(N[C@@H]3CCCC[C@@H]3N)nc21 [C00027]
NEIL1
  IC50: 25 µM

## O=C(O)c1cccc(/C=N/OCC(CO/N=C/c2cc(=O)[nH]c(=O)[nH]2)CO/N=C/c2cc(=O)[nH]c(=O)[nH]2)c1
UNG [1]; triskelion inhibitors
  IC50: 0.9 µM

## O=c1cc(/C=N/OCCCO/N=C/c2cc(O)c(O)cc2Cl)[nH]c(=O)[nH]1 [C00002 R = Cl]
UNG [1]; bipartite inhibitors
  IC50: 16 µM

## Cc1cc(/C=C/C#N)cc(C)c1Nc1nc(Nc2ccc3c(c2)CCC3)c2nc[nH]c2n1 [C00028 R = C00031]
NEIL1
  IC50: 8.9 µM

## O=c1cc(/C=N/OCCCO/N=C/c2cc(O)c(O)cc2[N+](=O)[O-])[nH]c(=O)[nH]1 [C00002 R = NO2]
UNG [1]; bipartite inhibitors
  IC50: 40 µM

## O=c1cc(/C=N/OCCCO/N=C/c2ccc(O)c(O)c2)[nH]c(=O)[nH]1 [C00002 R = H]
UNG [1]; bipartite inhibitors
  IC50: 1.1 µM

## gentamicin
UNG [2]
  IC50: 1500 µM
UNG [3]; UNG, E. coli, read-out: I50
  IC50: 420 µM

## CCCCCc1cc(O)cc2c1Oc1cc(O)cc(C(=O)CCCC)c1C(=O)O2 [norlobaric acid]
Nei2; read-out: I50
  IC50: 42 µM
Nei2; [11]
  Ki: 0.074 µM

## Cc1cc(/C=C/C#N)cc(C)c1Nc1nc(Nc2ccc3scnc3c2)c2nc[nH]c2n1 [C00028 R = C00029]
NEIL1
  IC50: 4 µM

## Nc1cc(=O)[nH]c(N)c1N=O [5-nitroso-4,6-diamino-2-oxopyridine]
Fpg [4]
  Fpg inhibition (in words): weakly inhibited

## Nc1cc(N)c(N=O)c(N)n1 [5-nitroso-2,4,6-triaminopyridine]
Fpg [4]
  Fpg inhibition (in words): weakly inhibited

## O=c1c(O)c(-c2ccc(O)cc2O)oc2cc(O)cc(O)c12 [Morin]
MPG
  IC50: 2.6 µM

## O=c1cc(/C=N/OCCCO/N=C/c2cc(O)c(O)cc2Br)[nH]c(=O)[nH]1 [C00002 R = Br]
UNG [1]; bipartite inhibitors
  IC50: 40 µM

## O=c1cc(/C=N/OCCCO/N=C/c2cc(O)c(O)cc2O)[nH]c(=O)[nH]1 [C00002 R = OH]
UNG [1]; bipartite inhibitors
  IC50: 0.26 µM

## Nc1c(S(=O)(=O)O)cc(Nc2ccc(Nc3nc(Cl)nc(Nc4ccccc4S(=O)(=O)O)n3)c(S(=O)(=O)O)c2)c2c1C(=O)c1ccccc1C2=O [Cibacron Blue F3GA]
Fpg [5]; [11]
  Ki: 0.005 µM

## O=c1cc(/C=N/OCC(CO/N=C/c2ccc(O)c(O)c2)CO/N=C/c2ccc(O)c(O)c2)[nH]c(=O)[nH]1 [C00009 R1 = R2 = 3,4-dihydroxyphenyl]
UNG [1]; triskelion inhibitors
  IC50: 1.6 µM

## 2-thioxanthine
Fpg [5]; read-out: I50
  IC50: 17 µM
Fpg [6]
  IC50: 100 µM
Fpg [4]; oxidizes zinc finger cysteines, not a true inhibitor, read-out: IC50, ability to suppress Fpg activity
  IC50: 10 to 100 µM

## O=C(O)c1cccc(C=NOCCON=Cc2cc(=O)[nH]c(=O)[nH]2)c1 [C00003 R1 = C00004 R2 = COOH, R3 = H]
UNG [1]; bipartite inhibitors
  IC50: 40 µM

## O=C(O)c1cccc(/C=N/OCC(CO/N=C/c2cccc(C(=O)O)c2)CO/N=C/c2cc(=O)[nH]c(=O)[nH]2)c1 [C00009 R1 = R2 = 3-carboxyphenyl]
UNG [1]; triskelion inhibitors
  IC50: 1.7 µM

## NC(=O)c1cccc(-c2ccc(S(=O)(=O)Nc3ccc4c(c3)N(C(=O)C3CC3)CCC4)cc2)c1 [C00025]
OGG1 [7]
  IC50: 0.059 µM

## O=C(O)c1cccc(CNCCCCNCc2cc(=O)[nH]c(=O)[nH]2)c1 [C00003 R1 = C00007 R2 = COOH, R3 = H]
UNG [1]; bipartite inhibitors
  IC50: 315 µM

## Cc1nc2ccc(Nc3nc(Nc4c(C)cc(/C=C/C#N)cc4C)nc4[nH]cnc34)cc2s1 [C00028 R = C00030]
NEIL1
  IC50: 7.9 µM

## O=C(O)/C=C/C(=O)CC(=O)CC(=O)O [Fumarylacetoacetate]
OGG1 [7]
  IC50: 1 µM
NEIL1
  IC50: 0.006 µM
NEIL2
  IC50: 0.032 µM
NTHL1
  IC50: 1 µM

## CCCCCCCCc1ccc(Nc2cc(=O)[nH]c(=O)[nH]2)cc1 [C00001 R1 = n-octyl R2 = H, 6-(p-n-octylanilino)uracil]
UNG [8]; UNG, HSV1, read-out: I50
  IC50: 8 µM
UNG [8]; herpes simplex type 1 UNG, read-out: IC50 for the viral enzyme
  IC50: ~8 µM
UNG [1]
  IC50: > 300 µM

## Cc1cnc(N)nc1CCCNC(=O)c1cccc(-c2ccc(S(=O)(=O)Nc3ccc4c(c3)N(C(=O)C3CC3)CCC4)cc2)c1 [SU0383]
MTH1
  IC50: 0.034 µM
OGG1 [7]
  IC50: 0.49 µM

## Cc1ccc(C(=O)Nc2ccc(S(=O)(=O)O)c3cc(S(=O)(=O)O)cc(S(=O)(=O)O)c23)cc1NC(=O)c1cccc(NC(=O)Nc2cccc(C(=O)Nc3cc(C(=O)Nc4ccc(S(=O)(=O)O)c5cc(S(=O)(=O)O)cc(S(=O)(=O)O)c45)ccc3C)c2)c1 [suramin]
MutY
  Kd: 16 µM

## O=c1cc(/C=N/OCCCO/N=C/c2cc(O)c(O)cc2F)[nH]c(=O)[nH]1 [C00002 R = F]
UNG [1]; bipartite inhibitors
  IC50: 2.7 µM

## Cc1cc(/C=C/C#N)cc(C)c1Nc1nc(Nc2ccc3c(c2)OCO3)c2nc[nH]c2n1 [C00028 R = C00032]
NEIL1
  IC50: 10 µM

## CN(C=O)c1c(N)nc(N)[nH]c1=O [2,6-diamino-4-oxo-5-(N-methylformamido)pyrimidine]
Fpg [4]
  Fpg inhibition (in words): weakly inhibited

## O=C(Nc1ccc(I)cc1)N1CCC(n2c(=O)[nH]c3c(Br)cccc32)CC1 [TH5487]
OGG1 [9]
  IC50: 0.34 µM
OGG1 [10]
  Effect on inflammatory response: downregulates the inflammatory response

## O=C(NN=C1CCCCC1)c1cc2ccccc2cc1O [C00022]
OGG1 [7]
  IC50: 0.34 µM

## Oc1ccc(NCc2ccccc2OCc2ccccc2)cc1 [C00012]
D4/A20 complex
  IC50: 5.1 µM

## N#C[C@]1(n2ccc(=O)[nH]c2=O)C[C@H](O)[C@@H](COP(=O)(O)OP(=O)(O)OP(=O)(O)O)O1 [1′-cyano-2′-deoxyuridine triphosphate]
UNG [1]; human UNG, nucleotide incorporated into DNA
  Ki: nanomolar
UNG [3]; E. coli Ung, nucleotide incorporated into DNA
  Ki: nanomolar

## O=c1cc(/C=N/OCC(CO/N=C/c2ccc(O)c(O)c2)CO/N=C/c2cc(=O)[nH]c(=O)[nH]2)[nH]c(=O)[nH]1
UNG [1]; triskelion inhibitors
  IC50: 0.9 µM

## NNC(=O)c1sc2cccc(Cl)c2c1Cl [C00018]
OGG1 [7]
  IC50: 0.22 µM

## O=C(O)c1cccc(CNCCCON=Cc2cc(=O)[nH]c(=O)[nH]2)c1 [C00003 R1 = C00006 R2 = COOH, R3 = H]
UNG [1]; bipartite inhibitors
  IC50: 100 µM

## O=C(O)c1ccc(C=NOCCON=Cc2cc(=O)[nH]c(=O)[nH]2)cc1 [C00003 R1 = C00008 R2 = H, R3 = COOH]
UNG [1]; bipartite inhibitors
  IC50: 6 µM
